In patent US12077503B2, “Substituted cyclic amides and their use as herbicides” (FMC CORPORATION, priority 2015, dated 2024):

Legend:
Type in all cases: in vivo
Kochia (Kochia scoparia) [1] = experiment: Test A preemergence; conditions: Bassia scoparia, pre-emergence, 240 h, Preemergence; for pest or weed control at 31 g/ha: 31 g ai/ha, 0 to 100 scale where 0 is no effect and 100 is complete control, read-out: Kochia plant response rating; for pest or weed control at 125 g/ha: 125 g ai/ha, visual injury rating after approximately 10 d, read-out: Kochia plant response rating (0 to 100 scale, 0 is no effect, 100 is complete control)
Procedure, shortened: (§1)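 Greenhouse, ~10 d after spray; visual injury vs untreated controls, 0 = no effect, 100 = complete control. Preemergence: directed soil spray over planted seeds. Postemergence: plants 2–10 cm, 1–2 leaf stage. Loam/sand blend. Compound in non-phytotoxic solvent with surfactant.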

[2] = system: barnyardgrass (Echinochloa crus-galli); experiment: Test A preemergence; conditions: Echinochloa crus-galli, pre-emergence, 240 h, Preemergence; for pest or weed control at 125 g/ha: 125 g ai/ha, visual injury rating after approximately 10 d, read-out: Barnyardgrass plant response rating (0 to 100 scale, 0 is no effect, 100 is complete control); for pest or weed control at 31 g/ha: 31 g ai/ha, 0 to 100 scale (0 no effect, 100 complete control), read-out: Plant response rating, Barnyardgrass
Procedure, shortened: as §1

[3] = system: giant foxtail (Setaria faberii); experiment: Test A preemergence; conditions: Setaria faberi, pre-emergence, 240 h, Preemergence; for pest or weed control at 125 g/ha: 125 g ai/ha, visual injury rating after approximately 10 d, read-out: Foxtail, Giant plant response rating (0 to 100 scale, 0 is no effect, 100 is complete control); for pest or weed control at 31 g/ha: 31 g ai/ha, 0 to 100 scale (0 no effect, 100 complete control), read-out: Plant response rating, Foxtail, Giant
Procedure, shortened: as §1

[4] = system: pigweed (Amaranthus retroflexus); experiment: Test A preemergence; conditions: Amaranthus retroflexus, pre-emergence, 240 h, Preemergence; for pest or weed control at 31 g/ha: 31 g ai/ha, 0 to 100 scale where 0 is no effect and 100 is complete control, read-out: Pigweed plant response rating; for pest or weed control at 125 g/ha: 125 g ai/ha, visual injury rating after approximately 10 d, read-out: Pigweed plant response rating (0 to 100 scale, 0 is no effect, 100 is complete control)
[5] = system: ragweed (common ragweed, Ambrosia elatior); experiment: Test A preemergence; conditions: Ambrosia artemisiifolia, pre-emergence, 240 h, Preemergence; for pest or weed control at 31 g/ha: 31 g ai/ha, 0 to 100 scale where 0 is no effect and 100 is complete control, read-out: Ragweed plant response rating; for pest or weed control at 125 g/ha: 125 g ai/ha, visual injury rating after approximately 10 d, read-out: Ragweed plant response rating (0 to 100 scale, 0 is no effect, 100 is complete control)
Procedure, shortened: as §1

[6] = system: ryegrass, Italian (Italian ryegrass, Lolium multiflorum); experiment: Test A preemergence; conditions: Lolium multiflorum, pre-emergence, 240 h, Preemergence; for pest or weed control at 31 g/ha: 31 g ai/ha, 0 to 100 scale where 0 is no effect and 100 is complete control, read-out: Ryegrass, Italian plant response rating; for pest or weed control at 125 g/ha: 125 g ai/ha, visual injury rating after approximately 10 d, read-out: Ryegrass, Italian plant response rating (0 to 100 scale, 0 is no effect, 100 is complete control)
Procedure, shortened: as §1

[7] = system: Galium (catchweed bedstraw, Galium aparine); experiment: Test A postemergence; conditions: Galium, post-emergence, 240 h, Postemergence, read-out: Plant response rating, Galium; for pest or weed control at 125 g/ha: 125 g ai/ha, visual injury after approximately 10 d, 0 to 100 scale where 0 is no effect and 100 is complete control; for pest or weed control at 31 g/ha: 31 g ai/ha, visual injury after approx. 10 d, 0 to 100 scale, 0 no effect, 100 complete control
Procedure, shortened: as §1

Kochia (Kochia scoparia) [8] = experiment: Test A postemergence; conditions: Bassia scoparia, post-emergence, 240 h, Postemergence, read-out: Plant response rating, Kochia; for pest or weed control at 125 g/ha: 125 g ai/ha, visual injury after approximately 10 d, 0 to 100 scale where 0 is no effect and 100 is complete control; for pest or weed control at 31 g/ha: 31 g ai/ha, visual injury after approx. 10 d, 0 to 100 scale, 0 no effect, 100 complete control
Procedure, shortened: as §1

[9] = system: barnyardgrass (Echinochloa crus-galli); experiment: Test A postemergence; conditions: Echinochloa crus-galli, post-emergence, 240 h, Postemergence, read-out: Plant response rating, Barnyardgrass; for pest or weed control at 125 g/ha: 125 g ai/ha, visual injury after approximately 10 d, 0 to 100 scale where 0 is no effect and 100 is complete control; for pest or weed control at 31 g/ha: 31 g ai/ha, visual injury after approx. 10 d, 0 to 100 scale, 0 no effect, 100 complete control
Procedure, shortened: as §1

[10] = system: blackgrass (Alopecurus myosuroides); experiment: Test A postemergence; conditions: Alopecurus myosuroides, post-emergence, 240 h, Postemergence, read-out: Plant response rating, Blackgrass; for pest or weed control at 125 g/ha: 125 g ai/ha, visual injury after approximately 10 d, 0 to 100 scale where 0 is no effect and 100 is complete control; for pest or weed control at 31 g/ha: 31 g ai/ha, visual injury after approx. 10 d, 0 to 100 scale, 0 no effect, 100 complete control
Procedure, shortened: as §1

corn (Zea mays) = experiment: Test A postemergence; conditions: Zea mays, post-emergence, 240 h, Postemergence; for Corn plant response rating (crop injury, 0 = no effect, 100 = complete kill) at 125 g/ha: 125 g ai/ha, visual injury after approximately 10 d, 0 to 100 scale where 0 is no effect and 100 is complete control; for Corn plant response rating (crop injury, 0 = no effect, 100 = complete kill) at 31 g/ha: 31 g ai/ha, visual injury after approx. 10 d, 0 to 100 scale, 100 complete control
Procedure, shortened: as §1

[11] = system: giant foxtail (Setaria faberii); experiment: Test A postemergence; conditions: Setaria faberi, post-emergence, 240 h, Postemergence, read-out: Plant response rating, Foxtail, Giant; for pest or weed control at 125 g/ha: 125 g ai/ha, visual injury after approximately 10 d, 0 to 100 scale where 0 is no effect and 100 is complete control; for pest or weed control at 31 g/ha: 31 g ai/ha, visual injury after approx. 10 d, 0 to 100 scale, 0 no effect, 100 complete control
Procedure, shortened: as §1

[12] = system: pigweed (Amaranthus retroflexus); experiment: Test A postemergence; conditions: Amaranthus retroflexus, post-emergence, 240 h, Postemergence, read-out: Plant response rating, Pigweed; for pest or weed control at 125 g/ha: 125 g ai/ha, visual injury after approximately 10 d, 0 to 100 scale where 0 is no effect and 100 is complete control; for pest or weed control at 31 g/ha: 31 g ai/ha, visual injury after approx. 10 d, 0 to 100 scale, 0 no effect, 100 complete control
Procedure, shortened: as §1

[13] = system: ragweed (common ragweed, Ambrosia elatior); experiment: Test A postemergence; conditions: Ambrosia artemisiifolia, post-emergence, 240 h, Postemergence, read-out: Plant response rating, Ragweed; for pest or weed control at 125 g/ha: 125 g ai/ha, visual injury after approximately 10 d, 0 to 100 scale where 0 is no effect and 100 is complete control; for pest or weed control at 31 g/ha: 31 g ai/ha, visual injury after approx. 10 d, 0 to 100 scale, 0 no effect, 100 complete control
Procedure, shortened: as §1

[14] = system: ryegrass, Italian (Italian ryegrass, Lolium multiflorum); experiment: Test A postemergence; conditions: Lolium multiflorum, post-emergence, 240 h, Postemergence, read-out: Plant response rating, Ryegrass, Italian; for pest or weed control at 125 g/ha: 125 g ai/ha, visual injury after approximately 10 d, 0 to 100 scale where 0 is no effect and 100 is complete control; for pest or weed control at 31 g/ha: 31 g ai/ha, visual injury after approx. 10 d, 0 to 100 scale, 0 no effect, 100 complete control
Procedure, shortened: as §1

[15] = system: wheat (Triticum aestivum); experiment: Test A postemergence; conditions: Triticum aestivum, post-emergence, 240 h, Postemergence, read-out: Plant response rating, Wheat; for plant injury at 125 g/ha: 125 g ai/ha, visual injury after approximately 10 d, 0 to 100 scale where 0 is no effect and 100 is complete control; for plant injury at 31 g/ha: 31 g ai/ha, visual injury after approx. 10 d, 0 to 100 scale, 0 no effect, 100 complete control
Procedure, shortened: as §1

[16] = system: barnyardgrass (Echinochloa crus-galli); experiment: Test B flooded paddy test; conditions: Echinochloa crus-galli, 250 g ai/ha, Flood; 0 to 100 scale where 0 is no effect and 100 is complete control; read-out: Barnyardgrass plant response rating
Procedure, shortened: (§2)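 Flooding to 3 cm over soil accompanied treatment, which consisted of adding compound to the standing water around 2-leaf plants; depth was then maintained. Visual assessment versus controls followed at 13 to 15 d (scale 0–100, 0 meaning no effect).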

[17] = system: ducksalad (Heteranthera limosa); experiment: Test B flooded paddy test; conditions: Heteranthera limosa, 250 g ai/ha, Flood; 0 to 100 scale where 0 is no effect and 100 is complete control; read-out: Ducksalad plant response rating
Procedure, shortened: as §2

rice (Oryra sativa) = experiment: Test B flooded paddy test; conditions: Oryza sativa, 250 g ai/ha, Flood; 0 to 100 scale where 0 is no effect and 100 is complete control; read-out: Rice plant response rating
Procedure, shortened: as §2

[18] = system: sedge, umbrella (small-flower umbrella sedge, Cyperus difformis); experiment: Test B flooded paddy test; conditions: Cyperus difformis, 250 g ai/ha, Flood; 0 to 100 scale where 0 is no effect and 100 is complete control; read-out: Sedge, Umbrella plant response rating
Procedure, shortened: as §2

Row | Structure (SMILES) | pest or weed control at 31 g/ha (Kochia (Kochia scoparia) [1]) | pest or weed control at 125 g/ha (Kochia (Kochia scoparia) [1]) | pest or weed control at 125 g/ha [2] | pest or weed control at 31 g/ha [2] | pest or weed control at 125 g/ha [3] | pest or weed control at 31 g/ha [3] | pest or weed control at 31 g/ha [4] | pest or weed control at 125 g/ha [4] | pest or weed control at 31 g/ha [5] | pest or weed control at 125 g/ha [5] | pest or weed control at 31 g/ha [6] | pest or weed control at 125 g/ha [6] | pest or weed control at 125 g/ha [7] | pest or weed control at 31 g/ha [7] | pest or weed control at 125 g/ha (Kochia (Kochia scoparia) [8]) | pest or weed control at 31 g/ha (Kochia (Kochia scoparia) [8]) | pest or weed control at 125 g/ha [9] | pest or weed control at 31 g/ha [9] | pest or weed control at 125 g/ha [10] | pest or weed control at 31 g/ha [10] | further results
1 | O=C(Nc1cccc(F)c1F)[C@H]1C(=O)N(O)CC[C@@H]1c1ccccc1 [Compound 1007] | 0% | 0% | 0% | 0% | 0% | 0% | 0% | 0% | 0% | 0% | 0% | 0% | 0% | 0% | 0% | 0% | 0% | 0% | 0% | 0% | Corn plant response rating (crop injury, 0 = no effect, 100 = complete kill) at 125 g/ha (corn (Zea mays)): 0%; Corn plant response rating (crop injury, 0 = no effect, 100 = complete kill) at 31 g/ha (corn (Zea mays)): 0%; pest or weed control at 125 g/ha [11]: 0%; pest or weed control at 31 g/ha [11]: 0%; pest or weed control at 125 g/ha [12]: 0%; pest or weed control at 31 g/ha [12]: 0%; pest or weed control at 125 g/ha [13]: 0%; pest or weed control at 31 g/ha [13]: 0%; pest or weed control at 125 g/ha [14]: 0%; pest or weed control at 31 g/ha [14]: 0%; plant injury at 125 g/ha [15]: 0%; plant injury at 31 g/ha [15]: 0%; pest or weed control at 250 g/ha [16]: 0%; pest or weed control at 250 g/ha [17]: 0%; pest or weed control at 250 g/ha (rice (Oryra sativa)): 0%; pest or weed control at 250 g/ha [18]: 0%
2 | CN1CC[C@H](c2ccccc2C(F)(F)F)[C@@H](C(=O)Nc2ccccc2C(F)(F)F)C1=O [Compound 1008] | 0% | 0% | 0% | 0% | 0% | 0% | 0% | 0% | 0% | 0% | 0% | 0% | 0% | 0% | 0% | 0% | 0% | 0% | 0% | 0% | Corn plant response rating (crop injury, 0 = no effect, 100 = complete kill) at 125 g/ha (corn (Zea mays)): 0%; Corn plant response rating (crop injury, 0 = no effect, 100 = complete kill) at 31 g/ha (corn (Zea mays)): 0%; pest or weed control at 125 g/ha [11]: 0%; pest or weed control at 31 g/ha [11]: 0%; pest or weed control at 125 g/ha [12]: 0%; pest or weed control at 31 g/ha [12]: 0%; pest or weed control at 125 g/ha [13]: 0%; pest or weed control at 31 g/ha [13]: 0%; pest or weed control at 125 g/ha [14]: 0%; pest or weed control at 31 g/ha [14]: 0%; plant injury at 125 g/ha [15]: 0%; plant injury at 31 g/ha [15]: 0%; pest or weed control at 250 g/ha [16]: 0%; pest or weed control at 250 g/ha [17]: 95%; pest or weed control at 250 g/ha (rice (Oryra sativa)): 0%; pest or weed control at 250 g/ha [18]: 0%
